According to patent publication US11208412B2 (DAEGU-GYEONGBUK MEDICAL INNOVATION FOUNDATION, priority 2017, dated 2021):

How the values were obtained:
Experiment in all cases: Kinase selectivity, DiscoverX scanMAX Kinase assay panel (% control)
Format in all cases: binding
[1] = biological target: T1, kinases of the scanMAX Kinase assay panel (Homo sapiens, UniProt Q9BXA7); settings: kinase TSSK1B; 1 uM in DMSO
T1 construct: purchased DiscoverX Co. (contract measurement) scanMAX Kinase assay panel
T1 sequence (Q9BXA7 1-367): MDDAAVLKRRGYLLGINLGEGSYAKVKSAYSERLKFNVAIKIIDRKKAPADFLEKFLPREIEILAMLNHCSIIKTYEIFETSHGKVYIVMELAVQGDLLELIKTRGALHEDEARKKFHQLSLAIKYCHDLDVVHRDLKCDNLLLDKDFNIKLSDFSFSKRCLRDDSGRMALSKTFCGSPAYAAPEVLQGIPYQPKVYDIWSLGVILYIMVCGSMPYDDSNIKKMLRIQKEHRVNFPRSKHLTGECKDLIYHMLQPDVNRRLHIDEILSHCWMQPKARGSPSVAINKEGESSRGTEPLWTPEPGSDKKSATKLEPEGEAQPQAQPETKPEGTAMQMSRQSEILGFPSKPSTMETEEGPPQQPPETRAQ
Outline: (§1)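 Each enzyme is treated with drug at 1 uM in DMSO, then signal is scaled between a positive control (0%) and DMSO (100%) to give % control. Kinases with % control under 35% are scored as inhibited.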

[2] = biological target: T2, kinases of the scanMAX Kinase assay panel (Homo sapiens, UniProt P48736); settings: PIK3CG; 1 uM
T2 construct: purchased DiscoverX Co. (contract measurement) scanMAX Kinase assay panel
T2 sequence (P48736 whole entry): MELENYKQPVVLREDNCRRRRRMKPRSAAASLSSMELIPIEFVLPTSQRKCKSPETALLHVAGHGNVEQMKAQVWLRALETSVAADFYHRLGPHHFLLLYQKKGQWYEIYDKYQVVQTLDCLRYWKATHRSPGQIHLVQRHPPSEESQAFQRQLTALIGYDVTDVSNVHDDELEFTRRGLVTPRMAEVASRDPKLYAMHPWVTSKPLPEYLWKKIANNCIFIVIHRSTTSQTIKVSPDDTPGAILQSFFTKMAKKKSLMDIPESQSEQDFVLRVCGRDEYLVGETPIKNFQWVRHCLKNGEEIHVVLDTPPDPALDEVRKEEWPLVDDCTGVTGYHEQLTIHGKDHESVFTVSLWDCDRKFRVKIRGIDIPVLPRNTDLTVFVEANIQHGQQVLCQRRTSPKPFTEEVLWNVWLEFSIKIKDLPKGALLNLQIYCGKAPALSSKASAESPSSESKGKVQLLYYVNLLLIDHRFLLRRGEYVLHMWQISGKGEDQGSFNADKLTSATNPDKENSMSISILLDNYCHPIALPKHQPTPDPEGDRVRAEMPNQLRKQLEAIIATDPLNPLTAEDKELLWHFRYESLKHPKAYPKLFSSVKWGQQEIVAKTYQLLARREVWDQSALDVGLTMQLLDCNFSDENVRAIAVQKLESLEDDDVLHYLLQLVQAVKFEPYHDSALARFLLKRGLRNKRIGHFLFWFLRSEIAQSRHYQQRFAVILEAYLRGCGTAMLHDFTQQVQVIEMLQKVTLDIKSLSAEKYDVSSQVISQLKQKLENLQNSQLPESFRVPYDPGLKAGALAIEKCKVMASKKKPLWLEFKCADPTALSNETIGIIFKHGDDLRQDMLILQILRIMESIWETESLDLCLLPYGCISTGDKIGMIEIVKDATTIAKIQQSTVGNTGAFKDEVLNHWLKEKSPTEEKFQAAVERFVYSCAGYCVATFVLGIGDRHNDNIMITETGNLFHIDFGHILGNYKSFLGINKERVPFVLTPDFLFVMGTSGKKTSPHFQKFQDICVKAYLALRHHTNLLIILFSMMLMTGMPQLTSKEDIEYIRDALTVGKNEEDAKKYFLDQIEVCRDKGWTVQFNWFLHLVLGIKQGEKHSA
Outline: as §1

[3] = biological target: T3, kinases of the scanMAX Kinase assay panel (Homo sapiens, UniProt O96013); settings: PAK4; 1 uM
T3 construct: purchased DiscoverX Co. (contract measurement) scanMAX Kinase assay panel
T3 sequence (O96013 whole entry): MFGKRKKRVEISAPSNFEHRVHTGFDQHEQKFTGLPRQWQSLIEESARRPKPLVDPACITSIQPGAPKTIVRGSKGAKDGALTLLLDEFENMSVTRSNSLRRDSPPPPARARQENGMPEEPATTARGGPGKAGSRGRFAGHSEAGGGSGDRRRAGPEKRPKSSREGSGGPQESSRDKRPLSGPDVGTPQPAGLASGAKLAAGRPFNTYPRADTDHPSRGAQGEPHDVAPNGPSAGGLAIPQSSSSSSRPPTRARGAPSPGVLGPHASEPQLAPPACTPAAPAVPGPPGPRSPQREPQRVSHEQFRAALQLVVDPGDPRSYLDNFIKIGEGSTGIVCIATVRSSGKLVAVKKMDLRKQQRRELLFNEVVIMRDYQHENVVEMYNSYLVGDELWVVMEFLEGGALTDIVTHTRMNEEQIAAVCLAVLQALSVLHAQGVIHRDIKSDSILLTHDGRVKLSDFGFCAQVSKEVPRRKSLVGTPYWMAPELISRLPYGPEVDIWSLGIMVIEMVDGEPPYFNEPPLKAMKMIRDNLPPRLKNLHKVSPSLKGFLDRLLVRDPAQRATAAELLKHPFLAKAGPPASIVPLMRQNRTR
Outline: as §1

[4] = biological target: T4, kinases of the scanMAX Kinase assay panel (Homo sapiens, UniProt P41240); settings: CSK; 1 uM
T4 construct: purchased DiscoverX Co. (contract measurement) scanMAX Kinase assay panel
T4 sequence (P41240 whole entry): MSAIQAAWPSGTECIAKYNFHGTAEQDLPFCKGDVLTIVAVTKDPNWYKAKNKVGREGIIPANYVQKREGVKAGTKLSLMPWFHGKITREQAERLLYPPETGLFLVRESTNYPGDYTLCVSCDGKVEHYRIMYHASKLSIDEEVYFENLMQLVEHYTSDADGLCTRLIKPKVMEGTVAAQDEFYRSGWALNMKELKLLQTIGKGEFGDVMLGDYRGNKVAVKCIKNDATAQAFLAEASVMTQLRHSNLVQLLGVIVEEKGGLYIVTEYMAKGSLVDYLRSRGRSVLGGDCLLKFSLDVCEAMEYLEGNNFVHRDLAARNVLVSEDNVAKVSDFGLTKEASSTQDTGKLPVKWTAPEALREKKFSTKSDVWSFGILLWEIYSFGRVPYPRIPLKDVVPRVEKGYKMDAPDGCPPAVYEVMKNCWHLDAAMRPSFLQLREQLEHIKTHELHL
Outline: as §1

[5] = biological target: T5, kinases of the scanMAX Kinase assay panel (Homo sapiens, UniProt Q9NYL2); settings: kinase ZAK; 1 uM in DMSO
T5 construct: purchased DiscoverX Co. (contract measurement) scanMAX Kinase assay panel
T5 sequence (Q9NYL2 whole entry): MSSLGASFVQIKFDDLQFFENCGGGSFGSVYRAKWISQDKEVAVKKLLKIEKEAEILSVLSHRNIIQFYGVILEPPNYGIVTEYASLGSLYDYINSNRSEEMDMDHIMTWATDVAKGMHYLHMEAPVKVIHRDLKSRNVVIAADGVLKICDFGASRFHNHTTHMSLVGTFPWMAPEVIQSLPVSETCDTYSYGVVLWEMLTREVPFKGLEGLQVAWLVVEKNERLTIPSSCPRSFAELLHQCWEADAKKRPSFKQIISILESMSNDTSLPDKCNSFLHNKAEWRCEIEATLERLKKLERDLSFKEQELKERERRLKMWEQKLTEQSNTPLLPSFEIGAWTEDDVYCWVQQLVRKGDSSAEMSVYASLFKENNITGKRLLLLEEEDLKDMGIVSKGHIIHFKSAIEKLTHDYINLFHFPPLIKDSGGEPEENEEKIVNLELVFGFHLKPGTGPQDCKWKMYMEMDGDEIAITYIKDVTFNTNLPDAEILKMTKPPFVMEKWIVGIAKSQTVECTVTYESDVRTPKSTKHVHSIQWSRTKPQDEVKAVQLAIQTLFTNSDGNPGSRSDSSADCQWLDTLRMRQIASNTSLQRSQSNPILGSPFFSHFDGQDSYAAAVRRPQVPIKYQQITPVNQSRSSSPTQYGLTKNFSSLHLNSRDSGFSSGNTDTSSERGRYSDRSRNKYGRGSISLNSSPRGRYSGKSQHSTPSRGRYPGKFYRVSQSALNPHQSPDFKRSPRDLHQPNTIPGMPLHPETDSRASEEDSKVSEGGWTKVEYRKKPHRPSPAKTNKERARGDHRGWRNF
Outline: as §1

[6] = biological target: T6, kinases of the scanMAX Kinase assay panel (Homo sapiens, UniProt Q9HBY8); settings: kinase SGK2; 1 uM in DMSO
T6 construct: purchased DiscoverX Co. (contract measurement) scanMAX Kinase assay panel
T6 sequence (Q9HBY8 1-367): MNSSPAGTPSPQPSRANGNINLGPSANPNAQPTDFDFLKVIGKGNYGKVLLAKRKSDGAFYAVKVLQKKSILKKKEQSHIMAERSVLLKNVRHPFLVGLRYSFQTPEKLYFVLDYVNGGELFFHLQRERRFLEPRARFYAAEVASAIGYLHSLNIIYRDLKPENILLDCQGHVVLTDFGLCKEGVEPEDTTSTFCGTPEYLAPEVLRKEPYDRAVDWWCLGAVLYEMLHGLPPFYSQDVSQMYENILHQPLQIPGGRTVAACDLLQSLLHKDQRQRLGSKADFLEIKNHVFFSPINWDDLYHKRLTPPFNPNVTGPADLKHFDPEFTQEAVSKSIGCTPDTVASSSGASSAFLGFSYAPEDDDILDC
Outline: as §1

[7] = biological target: T7, kinases of the scanMAX Kinase assay panel (Homo sapiens, UniProt P36888); settings: 1 uM
T7 construct: purchased DiscoverX Co. (contract measurement) scanMAX Kinase assay panel
T7 sequence (P36888 27-993): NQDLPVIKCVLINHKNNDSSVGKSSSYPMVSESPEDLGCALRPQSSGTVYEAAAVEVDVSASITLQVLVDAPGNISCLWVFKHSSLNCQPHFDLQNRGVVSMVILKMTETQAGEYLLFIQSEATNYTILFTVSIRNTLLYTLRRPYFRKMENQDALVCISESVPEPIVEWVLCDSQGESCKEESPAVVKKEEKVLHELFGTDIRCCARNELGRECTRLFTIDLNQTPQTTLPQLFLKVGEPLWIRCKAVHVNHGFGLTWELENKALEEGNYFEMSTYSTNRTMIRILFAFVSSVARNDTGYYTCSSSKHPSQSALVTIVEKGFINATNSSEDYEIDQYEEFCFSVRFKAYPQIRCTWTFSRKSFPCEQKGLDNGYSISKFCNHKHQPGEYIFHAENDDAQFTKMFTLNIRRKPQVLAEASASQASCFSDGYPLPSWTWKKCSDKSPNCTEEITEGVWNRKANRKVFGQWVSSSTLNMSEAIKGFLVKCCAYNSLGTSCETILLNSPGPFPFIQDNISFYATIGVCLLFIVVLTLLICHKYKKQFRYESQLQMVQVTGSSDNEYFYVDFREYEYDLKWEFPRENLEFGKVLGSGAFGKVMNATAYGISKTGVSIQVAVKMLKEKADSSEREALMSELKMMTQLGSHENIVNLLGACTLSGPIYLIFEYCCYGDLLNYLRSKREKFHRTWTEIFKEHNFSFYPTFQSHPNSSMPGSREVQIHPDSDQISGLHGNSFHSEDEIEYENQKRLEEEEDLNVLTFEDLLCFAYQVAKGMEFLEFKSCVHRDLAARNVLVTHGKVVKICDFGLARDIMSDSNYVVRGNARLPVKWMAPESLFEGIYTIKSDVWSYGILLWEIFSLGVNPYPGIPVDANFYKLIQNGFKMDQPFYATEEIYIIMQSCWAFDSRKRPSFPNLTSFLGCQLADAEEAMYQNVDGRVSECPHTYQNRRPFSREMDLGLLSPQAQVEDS
Outline: as §1

SMILES	remaining binding at 1 µM [1] [%]	remaining binding at 1 µM [2] [%]	remaining binding at 1 µM [3] [%]	remaining binding at 1 µM [4] [%]	remaining binding at 1 µM [5] [%]	remaining binding at 1 µM [6] [%]	remaining binding at 1 µM ([7]; FLT3-autoinhibited) [%]	remaining binding at 1 µM ([7]; FLT3) [%]
CCNc1nc(Nc2ccc(C(=O)N3CCC(N4CCOCC4)CC3)cc2OC)nc2[nH]cc(C(F)(F)F)c12 [Example 104, (4-((4-(ethylamino)-5-(trifluoromethyl)-7H-pyrrolo[2,3-d]pyrimidine-2-yl)amino)-3-methoxyphenyl)(4-morpholinopiperidine-1-yl)methanone]	0	87	100	85	100	100	76	65
CNc1nc(Nc2ccc(C(=O)N3CCOCC3)cc2OC)nc2[nH]cc(C#N)c12 [Example 1, 2-((2-methoxy-4-(morpholine-4-carbonyl)phenyl)amino)-4-(methylamino)-7H-pyrrolo[2,3-d]pyrimidine-5-carbonitrile]	22	76	79	99	100	82	45	86
CC1(Nc2nc(Nc3cnn([C@H]4CCN(C5COC5)C[C@@H]4F)c3Cl)nc3[nH]cc(C#N)c23)CC1 [Example 52, 2-((5-chloro-1-((3S,4S)-3-fluoro-1-(oxetane-3-yl)piperidine-4-yl)-1H-pyrazole-4-yl)amino)((1-methylcyclopropyl)amino)-7H-pyrrolo[2,3-d]pyrimidine-5-carbonitrile]	0.6	8.5	3.4	33	88	74	0.3	0.05
